Experimental data reported in ChEMBL document CHEMBL1201862, “PubChem BioAssay data set” (2004).
Blank lines part the entries; values can stand above or below the compound they belong to. The source made the active and inactive calls.

How the values were obtained:
Cytochrome P450 2D6 = Cytochrome P450 2D6 (Homo sapiens, UniProt P10635);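 also: CYP2D6 member of a cytochrome P450 panel assay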
Cytochrome P450 1A2 = target: T1, Cytochrome P450 1A2 (Homo sapiens, UniProt P05177);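 also: PubChem cytochrome P450 panel assay, CYP1A2 panel member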
T1 sequence (P05177 whole entry): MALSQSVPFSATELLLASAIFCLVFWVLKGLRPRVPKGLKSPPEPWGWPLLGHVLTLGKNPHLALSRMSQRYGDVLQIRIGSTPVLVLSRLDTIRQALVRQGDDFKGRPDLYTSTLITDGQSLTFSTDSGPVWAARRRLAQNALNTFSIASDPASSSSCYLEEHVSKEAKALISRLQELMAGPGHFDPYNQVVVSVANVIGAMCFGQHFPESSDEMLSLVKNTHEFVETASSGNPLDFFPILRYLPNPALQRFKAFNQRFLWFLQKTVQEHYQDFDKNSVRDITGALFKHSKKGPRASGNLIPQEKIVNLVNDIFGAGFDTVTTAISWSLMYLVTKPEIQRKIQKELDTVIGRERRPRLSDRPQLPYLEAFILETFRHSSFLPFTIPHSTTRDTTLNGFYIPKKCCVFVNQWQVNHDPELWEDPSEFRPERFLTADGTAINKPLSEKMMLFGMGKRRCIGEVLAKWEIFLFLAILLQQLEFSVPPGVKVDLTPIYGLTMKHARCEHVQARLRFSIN

Cytochrome P450 3A4 = Cytochrome P450 3A4 (Homo sapiens, UniProt P08684);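 also: CYP3A4 tested as one member of a cytochrome P450 panel screen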
Cytochrome P450 2C9 = Cytochrome P450 2C9 (Homo sapiens, UniProt P11712)
[1] = target: T2, Polyadenylate-binding protein 1 (Homo sapiens, UniProt P11940); experiment: MLLE binding blockers, Cy5 peptide tracer – biochemical, fluorescence polarization, Cy5-PAM2 peptide, secondary, miRNA deadenylation inhibitor project, dose response (AID 602260); format: functional; settings: read-out: IC50_Mean
[2] = target: T2, Polyadenylate-binding protein 1; experiment: MLLE domain peptide-binding blockers, IC50 – biochemical, fluorescence polarization, FITC-PAM2 peptide, dose response (AID 602259); format: functional; settings: read-out: IC50_Mean
Cytochrome P450 2C19 = Cytochrome P450 2C19 (Homo sapiens, UniProt P33261); experiment: Cytochrome panel assay with activity outcomes. Panel member name: p450-cyp2c19 Compounds with AC50 equal or less than 10 uM are considered active; format: functional; settings: read-out: AC50
[3] = target: T3, Calpain-2 catalytic subunit (Sus scrofa, UniProt P43367); experiment: m-calpain protease blockers, concentration series – biochemical, fluorogenic peptide substrate, dose response (AID 1420); format: functional
T3 sequence (P43367 whole entry): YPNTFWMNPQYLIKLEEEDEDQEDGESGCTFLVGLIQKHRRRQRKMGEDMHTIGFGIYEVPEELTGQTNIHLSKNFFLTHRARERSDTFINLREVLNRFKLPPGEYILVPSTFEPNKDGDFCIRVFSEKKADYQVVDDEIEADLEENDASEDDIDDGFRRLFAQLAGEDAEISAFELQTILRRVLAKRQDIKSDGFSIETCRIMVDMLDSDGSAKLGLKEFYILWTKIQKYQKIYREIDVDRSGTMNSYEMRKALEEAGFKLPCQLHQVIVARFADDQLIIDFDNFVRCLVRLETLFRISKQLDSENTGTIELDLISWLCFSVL

H9c2 = experiment: cells; format: functional, cell-based; settings: Rattus norvegicus, H9c2, Myocardium;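 also: confirmatory concentration-response retest of ultra-high-throughput screening hits for modulation of myocardial damage; cell death induced by hydrogen peroxide oxidative stress; compound pretreatment for 60 min then peroxide exposure for 2 h; potency is for protecting the cells against peroxide damage rather than for killing them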
[4] = target: T4, Rac GTPase-activating protein 1 (Homo sapiens, UniProt Q9H0H5); experiment: blockers of MgcRacGAP-driven Rac1 GTP hydrolysis – biochemical, ADP Hunter fluorescence, primary and confirmatory, confirmation (AID 624330); format: functional
T4 sequence (Q9H0H5 whole entry): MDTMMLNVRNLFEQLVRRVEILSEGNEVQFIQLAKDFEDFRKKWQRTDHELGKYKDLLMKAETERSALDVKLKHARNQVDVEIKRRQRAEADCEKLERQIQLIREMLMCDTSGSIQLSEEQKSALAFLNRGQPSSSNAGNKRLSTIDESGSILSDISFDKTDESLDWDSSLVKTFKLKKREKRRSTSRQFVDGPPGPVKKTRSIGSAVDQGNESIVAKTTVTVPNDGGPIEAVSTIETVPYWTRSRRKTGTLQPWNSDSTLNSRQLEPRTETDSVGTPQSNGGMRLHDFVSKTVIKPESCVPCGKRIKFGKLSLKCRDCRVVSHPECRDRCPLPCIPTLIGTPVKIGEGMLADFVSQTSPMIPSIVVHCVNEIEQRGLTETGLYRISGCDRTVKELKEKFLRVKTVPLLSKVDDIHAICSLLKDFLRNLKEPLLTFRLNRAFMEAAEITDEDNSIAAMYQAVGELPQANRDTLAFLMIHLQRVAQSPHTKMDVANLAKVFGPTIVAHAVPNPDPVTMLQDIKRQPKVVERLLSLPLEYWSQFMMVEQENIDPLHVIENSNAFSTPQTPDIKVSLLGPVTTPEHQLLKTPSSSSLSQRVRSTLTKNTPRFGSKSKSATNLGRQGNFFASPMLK

[5] = target: T5, Heat shock factor protein 1 (Mus musculus, UniProt P38532); experiment: decrease of HSF1-responsive luciferase luminescence – cell-based, NIH3T3, dose retest, confirmation (AID 2382); format: functional;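 also: NIH3T3 fibroblasts with HSF1-driven luciferase reporter stressed by proteasome inhibitor MG132; luminescence from HSF1-driven luciferase expression after 8 hours of MG132 stress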
T5 sequence (P38532 whole entry): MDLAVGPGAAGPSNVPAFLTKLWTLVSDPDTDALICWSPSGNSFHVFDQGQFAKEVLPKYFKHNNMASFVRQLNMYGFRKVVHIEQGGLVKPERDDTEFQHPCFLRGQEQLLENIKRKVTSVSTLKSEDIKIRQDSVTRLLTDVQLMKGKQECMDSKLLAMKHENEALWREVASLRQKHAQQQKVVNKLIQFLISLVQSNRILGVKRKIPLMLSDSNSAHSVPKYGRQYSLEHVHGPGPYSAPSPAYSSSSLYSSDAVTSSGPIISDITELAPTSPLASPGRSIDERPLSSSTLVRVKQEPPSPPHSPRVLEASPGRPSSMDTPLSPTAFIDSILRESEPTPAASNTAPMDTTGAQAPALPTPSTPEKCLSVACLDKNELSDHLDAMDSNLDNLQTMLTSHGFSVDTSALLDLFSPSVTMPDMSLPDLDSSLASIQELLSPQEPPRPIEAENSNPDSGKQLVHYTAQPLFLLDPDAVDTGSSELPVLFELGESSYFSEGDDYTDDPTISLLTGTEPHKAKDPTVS

[6] = NIH-3T3 fibroblast cytotoxicity, dose response, cytotoxicity control, cell-based, fluorescence, Alamar Blue, secondary assay (AID 2327); format: functional;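 also: NIH-3T3 mouse fibroblasts cultured with fluconazole at 8 µg/mL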
[7] = target: T6, RNA-binding protein pos-1 (Caenorhabditis elegans, UniProt G5EF15); experiment: disruptors of C. elegans POS-1 RNA interaction – biochemical, fluorescence polarization, dose response (AID 1964);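 also: purified POS-1 fused to maltose binding protein made in E. coli; potency of compounds blocking POS-1 binding to fluorescent RNA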
T6 sequence (G5EF15 whole entry): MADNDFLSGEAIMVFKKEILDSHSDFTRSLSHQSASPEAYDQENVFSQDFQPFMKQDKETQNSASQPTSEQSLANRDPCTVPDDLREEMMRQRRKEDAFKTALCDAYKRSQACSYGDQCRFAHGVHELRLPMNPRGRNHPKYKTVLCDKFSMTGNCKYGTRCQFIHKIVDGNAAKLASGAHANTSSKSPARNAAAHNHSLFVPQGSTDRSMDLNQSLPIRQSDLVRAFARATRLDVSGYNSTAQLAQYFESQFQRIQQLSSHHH

[8] = target: T7, Zinc finger protein mex-5 (Caenorhabditis elegans, UniProt Q9XUB2); experiment: potency of MEX-5 RNA-binding blockers – biochemical, C. elegans, fluorescence polarization, dose response (AID 1960)
T7 sequence (Q9XUB2 whole entry): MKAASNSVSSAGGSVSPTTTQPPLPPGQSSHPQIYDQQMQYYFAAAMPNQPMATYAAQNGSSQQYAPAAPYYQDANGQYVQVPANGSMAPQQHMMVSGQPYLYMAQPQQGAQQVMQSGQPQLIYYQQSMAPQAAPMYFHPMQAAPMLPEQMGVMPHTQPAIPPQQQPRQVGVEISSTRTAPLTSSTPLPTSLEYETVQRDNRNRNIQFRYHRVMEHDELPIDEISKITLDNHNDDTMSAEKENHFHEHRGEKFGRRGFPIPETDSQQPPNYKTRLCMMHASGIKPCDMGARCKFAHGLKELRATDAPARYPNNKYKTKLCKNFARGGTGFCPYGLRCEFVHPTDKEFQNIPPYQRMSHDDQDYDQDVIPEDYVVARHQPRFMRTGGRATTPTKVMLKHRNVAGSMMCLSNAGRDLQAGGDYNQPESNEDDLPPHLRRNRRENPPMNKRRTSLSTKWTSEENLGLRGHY

[9] = fluconazole-exposed Candida albicans growth modulators – fluorescence, retest, confirmation (AID 2467); format: functional, cell-based
[10] = Luminescence Cell-Based Dose Retest to Confirm Inhibitors of Cancer Stem Cells. [Related pubchem assays (depositor defined):AID2717, AID2721]; format: functional; settings: Homo sapiens

Chain of Cytochrome P450 2C9 (P11712 whole entry): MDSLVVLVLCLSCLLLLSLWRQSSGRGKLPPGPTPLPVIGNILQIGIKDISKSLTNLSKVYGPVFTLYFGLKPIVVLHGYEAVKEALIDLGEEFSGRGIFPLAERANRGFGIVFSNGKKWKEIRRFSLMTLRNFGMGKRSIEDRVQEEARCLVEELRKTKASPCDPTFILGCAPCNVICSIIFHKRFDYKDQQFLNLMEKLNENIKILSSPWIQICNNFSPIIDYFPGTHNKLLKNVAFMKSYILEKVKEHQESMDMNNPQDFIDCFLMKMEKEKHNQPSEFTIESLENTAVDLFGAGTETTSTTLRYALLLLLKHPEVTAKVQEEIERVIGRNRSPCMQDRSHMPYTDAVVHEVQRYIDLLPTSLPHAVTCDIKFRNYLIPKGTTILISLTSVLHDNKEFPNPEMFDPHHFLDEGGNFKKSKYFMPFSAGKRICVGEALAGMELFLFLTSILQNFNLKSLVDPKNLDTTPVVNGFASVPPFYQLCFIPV
T2 sequence (P11940 whole entry, the tested form may be a part): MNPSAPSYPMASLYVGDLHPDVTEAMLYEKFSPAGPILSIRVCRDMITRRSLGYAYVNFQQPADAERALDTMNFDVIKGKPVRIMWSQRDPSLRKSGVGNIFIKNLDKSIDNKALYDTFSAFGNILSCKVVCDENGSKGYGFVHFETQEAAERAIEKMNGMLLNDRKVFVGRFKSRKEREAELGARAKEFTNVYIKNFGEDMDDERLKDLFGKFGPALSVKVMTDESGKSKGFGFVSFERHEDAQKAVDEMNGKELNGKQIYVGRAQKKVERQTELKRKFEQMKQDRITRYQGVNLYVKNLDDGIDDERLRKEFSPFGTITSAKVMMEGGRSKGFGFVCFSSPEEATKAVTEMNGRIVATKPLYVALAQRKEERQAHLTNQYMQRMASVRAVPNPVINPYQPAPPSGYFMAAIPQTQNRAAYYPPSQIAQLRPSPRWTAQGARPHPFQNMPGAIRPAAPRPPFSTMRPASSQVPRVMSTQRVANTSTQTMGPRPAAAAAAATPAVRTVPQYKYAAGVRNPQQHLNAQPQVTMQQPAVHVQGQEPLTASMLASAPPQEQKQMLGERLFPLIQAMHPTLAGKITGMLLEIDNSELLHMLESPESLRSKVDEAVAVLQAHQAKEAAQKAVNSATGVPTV
Chain of Cytochrome P450 2C19 (P33261 whole entry): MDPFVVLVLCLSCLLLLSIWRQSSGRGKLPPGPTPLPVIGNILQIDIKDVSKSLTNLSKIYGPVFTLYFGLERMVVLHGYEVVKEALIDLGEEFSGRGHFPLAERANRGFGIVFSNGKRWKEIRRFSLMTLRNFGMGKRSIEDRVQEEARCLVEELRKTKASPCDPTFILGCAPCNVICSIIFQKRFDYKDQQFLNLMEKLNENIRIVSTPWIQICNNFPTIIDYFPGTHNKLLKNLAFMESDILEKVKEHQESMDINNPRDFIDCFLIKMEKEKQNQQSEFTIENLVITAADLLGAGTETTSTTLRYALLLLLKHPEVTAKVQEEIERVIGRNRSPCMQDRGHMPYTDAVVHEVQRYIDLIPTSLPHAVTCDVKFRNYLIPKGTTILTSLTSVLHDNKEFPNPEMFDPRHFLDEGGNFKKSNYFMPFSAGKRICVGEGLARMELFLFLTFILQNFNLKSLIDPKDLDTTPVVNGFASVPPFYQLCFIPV
Chain of Cytochrome P450 3A4 (P08684 whole entry): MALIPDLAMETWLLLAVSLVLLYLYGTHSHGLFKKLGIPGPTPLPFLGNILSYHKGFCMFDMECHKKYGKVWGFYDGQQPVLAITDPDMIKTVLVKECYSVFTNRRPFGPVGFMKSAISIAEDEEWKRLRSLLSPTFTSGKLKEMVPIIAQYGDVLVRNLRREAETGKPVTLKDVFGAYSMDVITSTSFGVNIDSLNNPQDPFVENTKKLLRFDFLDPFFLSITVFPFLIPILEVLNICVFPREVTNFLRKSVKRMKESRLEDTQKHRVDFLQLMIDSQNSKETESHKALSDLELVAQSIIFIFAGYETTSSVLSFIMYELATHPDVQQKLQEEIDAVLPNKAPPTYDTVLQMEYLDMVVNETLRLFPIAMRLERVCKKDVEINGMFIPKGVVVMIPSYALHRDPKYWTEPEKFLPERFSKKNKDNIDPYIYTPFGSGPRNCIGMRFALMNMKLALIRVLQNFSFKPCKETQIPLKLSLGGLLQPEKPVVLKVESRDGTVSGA
Chain of Cytochrome P450 2D6 (P10635 whole entry): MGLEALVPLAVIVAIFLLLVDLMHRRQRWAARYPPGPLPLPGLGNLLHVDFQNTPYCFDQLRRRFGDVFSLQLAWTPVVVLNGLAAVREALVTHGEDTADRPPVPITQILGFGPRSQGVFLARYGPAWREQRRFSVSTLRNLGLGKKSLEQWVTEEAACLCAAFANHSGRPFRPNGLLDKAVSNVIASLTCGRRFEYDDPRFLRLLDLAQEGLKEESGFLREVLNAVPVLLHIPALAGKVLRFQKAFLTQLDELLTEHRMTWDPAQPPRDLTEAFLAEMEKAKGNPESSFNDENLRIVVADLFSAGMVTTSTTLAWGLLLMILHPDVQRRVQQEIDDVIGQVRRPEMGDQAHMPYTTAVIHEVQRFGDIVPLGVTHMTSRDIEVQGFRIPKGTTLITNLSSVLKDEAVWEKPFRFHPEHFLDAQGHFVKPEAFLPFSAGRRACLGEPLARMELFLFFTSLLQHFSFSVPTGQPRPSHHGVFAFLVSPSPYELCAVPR

AC50 (Cytochrome P450 2D6): 39.8 µM (inconclusive)
AC50 (Cytochrome P450 1A2): 15.8 µM (inconclusive)
AC50 (Cytochrome P450 3A4): 25.1 µM (inconclusive)
AC50 (Cytochrome P450 2C9): 12.6 µM (inconclusive)
Compound: NCCCCNS(=O)(=O)c1cccc2c(Cl)cccc12

AC50 (Cytochrome P450 2C19): 11.2 µM (inconclusive)
AC50 (Cytochrome P450 1A2): 15.8 µM (inconclusive)
AC50 (Cytochrome P450 3A4): 39.8 µM (inconclusive)
AC50 (Cytochrome P450 2C9): 28.2 µM (inconclusive)
Compound: CC(=O)NCc1c(Cl)cccc1-n1cccc1

AC50 (Cytochrome P450 2C19): 20 µM (inconclusive)
AC50 (Cytochrome P450 2D6): 15.8 µM (inconclusive)
AC50 (Cytochrome P450 1A2): 2.51 µM (inconclusive)
Compound: FC(F)(F)c1ccccc1-c1cncnc1NCCN1CCOCC1

EC50 [5]: > 195 µM (not active)
IC50 [1]: > 66 µM (inactive)
IC50 [2]: > 66 µM (inactive)
Compound: Cc1ccc(-c2nc3cnccn3c2Nc2c(C)cccc2C)o1

IC50 [1]: > 66 µM (inactive)
IC50 [2]: > 66 µM (inactive)
Compound: CCCCN(C(=S)NC(=O)c1ccccc1)c1c(N)n(Cc2ccccc2)c(=O)[nH]c1=O

AC50 (Cytochrome P450 2C19): 15.8 µM (active)
AC50 (Cytochrome P450 2D6): 15.8 µM (active)
AC50 (Cytochrome P450 1A2): 0.398 µM (active)
Compound: c1ccc(CNc2nc(-c3cccnc3)nc3ccccc23)cc1

IC50 [1]: > 66 µM (inactive)
IC50 [2]: > 66 µM (inactive)
Compound: COc1ccc(N2C(=O)CC(SCCc3nc4ccccc4[nH]3)C2=O)cc1 (stereo unspecified)

IC50 [3]: 3.34 µM (not active)
Compound: CCOC(=O)N1CCC2(CC1)C(C#N)=C(N)Oc1[nH]nc(CSc3ccc(C)cc3)c12

AC50 (Cytochrome P450 1A2): 5.01 µM (inconclusive)
Compound: N=C(N)SCc1cc(Cl)cc(Cl)c1O

IC50 [3]: 13.5 µM (not active)
Compound: C=C(C)CNC(=S)N/N=C/c1ccc(NC(C)=O)cc1

IC50 [3]: 14.6 µM (not active)
Compound: NC(=O)CC(NC(=O)Cc1ccc(Br)cc1)c1ccc(NCC2CC2)c([N+](=O)[O-])c1 (stereo unspecified)

IC50 [1]: > 66 µM (inactive)
IC50 [2]: > 66 µM (inactive)
Compound: Cc1onc(-c2ccccc2)c1C(=O)NC(=S)NNC(=O)c1ccncc1

More lines, now with the values behind:

Compound: Cc1ccc(Cl)cc1N1C(=O)CC(Sc2ncccn2)C1=O (stereo unspecified)
IC50 [1]: > 66 µM (inactive)
IC50 [2]: > 66 µM (inactive)

Compound: O=C(c1ccc(Cl)cc1)c1oc2ccccc2c1CS(=O)(=O)c1ccccc1
IC50 [3]: > 50 µM (not active)

Compound: Oc1ccc(Br)cc1/C=N/c1ccc2[nH]ncc2c1
IC50 (H9c2): 12.6 µM (active)
IC50 [4]: 32.1 µM (active)

Compound: O=C(Nc1cccc(F)c1)N1CCCC2(CCN(C(=O)Oc3ccccc3)CC2)C1
AC50 (Cytochrome P450 2C19): 25.1 µM (inconclusive)
AC50 (Cytochrome P450 1A2): 10 µM (inconclusive)
AC50 (Cytochrome P450 2C9): 39.8 µM (inconclusive)

Compound: CCc1ccccc1N(C(C)=O)c1nc(CN=C=S)cs1
IC50 [3]: 14.5 µM (not active)

Compound: c1ccc2c(c1)-c1ccccc1C2N1C[C@H]2CC[C@H](CC2)C1
AC50 (Cytochrome P450 1A2): 0.501 µM (inconclusive)

Compound: Cc1ccc(CNC(=O)Cn2cncn2)cc1
AC50 (Cytochrome P450 2D6): 17.8 µM (inconclusive)
AC50 (Cytochrome P450 1A2): 39.8 µM (inconclusive)
AC50 (Cytochrome P450 3A4): 14.1 µM (inconclusive)

Compound: CCCNC(=O)c1ccc2c(O)c(O)c(-c3ccc(F)cc3)nc2c1
EC50 [6]: > 150 µM (inactive)
EC50 [7]: 7.74 µM (inconclusive)
EC50 [8]: 4.47 µM (inconclusive)
EC50 [9]: > 38 µM (not active)
IC50 (H9c2): 14.1 µM (active)

Compound: NS(=O)(=O)c1ccc(NC(S)=Nc2ccc(S(=O)(=O)N3CCCC3)cc2)cc1
IC50 [1]: > 66 µM (inactive)
IC50 [2]: > 66 µM (inactive)

Compound: COc1cc(/C=N/NC(=O)COc2cccc(F)c2)ccc1OS(=O)(=O)c1ccc(C)cc1
IC50 [3]: 2.21 µM (not active)

Compound: Cc1cc(O)cc(O)c1/C=N/NC(=O)c1ccc2c(c1)OCCO2
IC50 [1]: > 66 µM (inactive)
IC50 [2]: 30.8 µM (inactive)

Compound: COC(=O)C1CCN(CC(=O)Nc2sc3c(c2C#N)CCC3)CC1
AC50 (Cytochrome P450 1A2): 15.8 µM (inconclusive)

Compound: SC1=NC[C@H](Cc2ccccc2)N1CCCCC1CCCCC1
IC50 [3]: 7.52 µM (not active)
AC50 [10]: 6.26 µM (active)

Compound: CC(C)c1ccc(N2C(=O)CC(Sc3ncccn3)C2=O)cc1 (stereo unspecified)
IC50 [1]: > 66 µM (inactive)
IC50 [2]: > 66 µM (inactive)

Compound: O=C(NC(=S)Nc1ccc(S(=O)(=O)Nc2nccs2)cc1)c1ccccc1
IC50 [1]: > 66 µM (inactive)
IC50 [2]: > 66 µM (inactive)

Compound: Cc1ccc(-c2nc3ccccc3o2)cc1NC(=O)Cc1cccs1
AC50 (Cytochrome P450 2C19): 15.8 µM (inconclusive)
AC50 (Cytochrome P450 1A2): 2 µM (inconclusive)

Compound: O=C(O)c1ccc(Cl)c(NC(=S)NC(=O)c2ccccc2[N+](=O)[O-])c1
IC50 [1]: > 66 µM (inactive)
IC50 [2]: > 66 µM (inactive)
